Data taken from PMC12118337, “Development of a Peptide Inhibitor Targeting the C‐SH2 Domain of the SHP2 Phosphatase” (Chembiochem, 2025).
Residues, ends and D or L forms follow the SMILES beside them. *: point of attachment. 5FAM = O=C1OC2(c3ccc(O)cc3Oc3cc(O)ccc32)c2ccc(C(=O)*)cc21; X1 = O=C(O)C(C(=O)O)*

Target: T1, SHP2 PTP domain (Homo sapiens, UniProt Q06124)
T1 construct: SHP2 N-SH2 domain (1–105), C-SH2 domain (106–220), PTP domain (224–541) and; His6 (pETM22 vector) (N, cleaved yes); made in house; host or cells: E. coli BL21(DE3) Tuner
T1 sequence (Q06124 224-541): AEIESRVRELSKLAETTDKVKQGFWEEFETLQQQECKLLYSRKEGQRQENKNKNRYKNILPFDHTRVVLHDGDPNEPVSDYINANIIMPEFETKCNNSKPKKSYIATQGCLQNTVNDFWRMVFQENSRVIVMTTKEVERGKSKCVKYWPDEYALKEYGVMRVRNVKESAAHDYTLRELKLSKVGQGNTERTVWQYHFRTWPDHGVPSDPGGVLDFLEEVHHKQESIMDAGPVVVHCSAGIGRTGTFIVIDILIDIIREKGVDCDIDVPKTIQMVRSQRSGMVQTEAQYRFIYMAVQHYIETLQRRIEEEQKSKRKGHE
Assay: FP binding assay, SHP2 PTP domain
Details: 100 nM peptide, increasing C-SH2, N-SH2 or PTP domain
Method: buffer and stored in 5 mL binding buffer at 4°C. His-tagged 3C protease (0.5 mg; EMBL) was added to the pooled eluted fractions and dialysed using Spectra Por Dialysis Tubing (MWCO 6-8 kDa, 23 mm; Spectrum Labs) in 1 L of binding buffer at 4°C for 3 hours, then overnight in fresh buffer. A new column was prepared by loading 2 mL Ni-NTA Agarose (Invitrogen) as a 50% slurry in EtOH. The column was washed with 10 mL H2O to remove the EtOH and equilibrated with 10 mL binding buffer. The protein/3C protease mixture was loaded onto the column and incubated for 1 hour at 4°C on a rocker. […] Protein purification was monitored by SDS-PAGE using NuPAGE 4-12% Bis-Tris Protein Gels (Invitrogen) run in MOPS buffer (50 mM MOPS, 50 mM Tris-HCl pH 7.7, 1 mM EDTA, 0.1% SDS) followed by Coomassie staining using Coomassie Brilliant Blue (Roth). […]
4. Fluorescence polarization
Fluorescence polarization (FP) was used to measure the binding of FAM-labelled peptides to the SHP2 C-SH2, SHP2 N-SH2, SHP2 PTP, CSK SH2 or Src SH2 domains. […]
concentration of 100 nM in a final volume of 200 µL. […] The FP was immediately measured on a Synergy H1 Microplate Reader (BioTek) with the excitation and emission monitored at 485 nm and 528 nm, respectively, over 30 minutes. FP values were automatically calculated by the Gen5 3.03 (BioTek) software associated with the microplate reader. […]

binding selectivity for C‐SH2 over N‐SH2 and PTP domains: maintained binding selectivity
Compound: CC[C@H](C)[C@H](NC(=O)[C@@H](NC(=O)[C@H](C)NC(=O)[C@H](Cc1ccc(OC(C(=O)O)C(=O)O)cc1)NC(=O)[C@H](CCC(=O)O)NC(=O)[C@@H](NC(=O)[C@H](CCC(N)=O)NC(=O)c1ccc2c(c1)C(=O)OC21c2ccc(O)cc2Oc2cc(O)ccc21)[C@@H](C)O)[C@@H](C)O)C(=O)N[C@@H](CCCCN)C(=O)N[C@@H](Cc1c[nH]cn1)C(=O)N1CCC[C@H]1C(N)=O [peptide 26] (5FAM-QTEY(X1)ATIKHP-NH2)
